This note sets out measurements from patent US20100016298A1, “Theramutein modulators” (priority 2005, published 2010).

In the experiment the target is T1, Ba/F3 cells expressing the p210Bcr-Abl-T315I theramutein (Homo sapiens, UniProt P00519, T315I, cells depend on it).
T1 construct: IC50 activity category, T315I; T315I cell line; even at 10 μM concentration; fused on or other part: P11274 (Breakpoint cluster region protein)
Kind of experiment: cellular assay system: growth inhibition (cell count), Ba/F3 T315I cell line. The format is cell-based, murine. The settings on record: concentration inhibiting growth of the cell line by 50%, read-out: IC50 activity category, T315I.
Consider `Oc1ccccc1/C=N/Nc1ncc(F)c(N2CCOCC2)n1`, for which the GI50 is < 10 µM.
As for `Fc1cnc(N/N=C/c2ccccn2)nc1N1CCOCC1`, the figure is < 1 µM.
As for `Oc1ccc(Br)cc1/C=N/Nc1ncc(F)c(N2CCOCC2)n1`, the figure is < 1 µM.
The result for `Cc1ccccc1/C=N/Nc1ncc(F)c(N2CCOCC2)n1` reads > 10 µM.
With `Cc1ccc(/C=N/Nc2ncc(F)c(N3CCOCC3)n2)cc1`, the GI50 was > 10 µM.
`Fc1cnc(N/N=C/c2ccccc2)nc1N1CCOCC1`: the GI50 is > 10 µM.
In the case of `O=C(Nc1cccc(C(F)(F)F)c1)c1cc(Cl)c(O)c(/C=N\Nc2ncc(F)c(N3CCOCC3)n2)c1`, the GI50 is < 1 µM.
The result for `O=C(Nc1cccc(C(F)(F)F)c1)c1cccc(/C=N/Nc2ncc(F)c(N3CCOCC3)n2)n1` reads > 10 µM.
The result for `O=C(Nc1cccc(C(F)(F)F)c1)c1ccc(/C=N/Nc2ncc(F)c(N3CCOCC3)n2)nc1` reads < 1 µM.
As for `Fc1cnc(N/N=C/c2ccc(-c3cccc(C(F)(F)F)c3)cn2)nc1N1CCOCC1`, the figure is < 1 µM; as for `O=C(C/C=N/Nc1ncc(F)c(N2CCOCC2)n1)Nc1cccc(C(F)(F)F)c1`, > 10 µM; as for `Cc1cccc(Cl)c1NC(=O)C/C=N/Nc1ncc(F)c(N2CCOCC2)n1`, > 10 µM.
Turning to `Fc1cnc(N/N=C/c2ccc(Nc3ccc(N4CCOCC4)cc3)cn2)nc1N1CCOCC1`, the GI50 was < 1 µM.
The result for `Fc1cnc(N/N=C/c2ccc(Nc3ccc(-c4ccccn4)c(Cl)c3)cn2)nc1N1CCOCC1` reads < 1 µM; that for `CC(C(=O)O)c1ccc(Nc2ccc(/C=N/Nc3ncc(F)c(N4CCOCC4)n3)nc2)cc1` (centres unmarked), > 10 µM.
For `Fc1cnc(N/N=C/c2ccc(Nc3cccc(-n4ccnc4)c3)cn2)nc1N1CCOCC1`, the GI50 is < 1 µM.
As for `Cc1cc(Nc2ccc(/C=N/Nc3ncc(F)c(N4CCOCC4)n3)nc2)cc(N2CCNCC2)c1`, the figure is < 1 µM.
The result for `O=C(NNc1ncc(F)c(N2CCOCC2)n1)c1ccc(Nc2cccc(C(F)(F)F)c2)cn1` reads < 1 µM; that for `Cc1cc(Nc2cccc(C(F)(F)F)c2)ccc1/C=N/Nc1ncc(F)c(N2CCOCC2)n1`, > 10 µM.
As for `CN(C)c1cc(O)cc(Nc2ccc(/C=N/Nc3ncc(F)c(N4CCOCC4)n3)nc2)c1`, the figure is < 1 µM; as for `Fc1cnc(N/N=C/c2ccc(Nc3cccc(C(F)(F)F)c3)cn2)nc1-c1cncc(-c2ccccc2)c1`, < 1 µM.
On to `Fc1cnc(N/N=C/c2ccc(Nc3cccc(C(F)(F)F)c3)cn2)nc1-c1cncc(C2CC2)c1`, for which the GI50 was < 10 µM.
As for `Oc1cccc(Nc2cccc(Nc3ccc(/C=N/Nc4ncc(F)c(N5CCOCC5)n4)nc3)c2)c1`, the figure is < 1 µM.
